From patent US7297704B2, “Cycloalkyfused indole, benzothiophene, benzofuran and idene derivatives” (Wyeth, priority 2005, dated 2007) come the findings set out here.

One data set concerns the target T1, serotonin transporter (Rattus norvegicus, UniProt P31652).
T1 construct: frontal cortical membranes prepared from male S.D. rats; from tissue; host or cells: rat frontal cortex membranes (male Sprague-Dawley)
The experiment in a line: 3H-paroxetine binding to the serotonin transporter, rat frontal cortical membranes. To be noted: values printed in parentheses, 3H-paroxetine 0.1 nM, read-out: rb-5-HH-T, (IC50). How it is done:
A protocol similar to that used by Cheetham et al. (Neuropharmacol. 32:737, 1993) was used to determine the affinity of compounds for the serotonin transporter. Briefly, frontal cortical membranes prepared from male S.D. rats were incubated with ^3H-paroxetine (0.1 nM) for 60 min at 25° C. All tubes also contained either vehicle, test compound (one to eight concentrations), or a saturating concentration of fluoxetine (10 μM) to define […]. All reactions are terminated by the addition of ice cold Tris buffer followed by rapid filtration using a Tom Tech filtration device to separate bound from free ^3H-paroxetine. Bound radioactivity was quantitated using a Wallac 1205 Beta Plate® counter. Nonlinear regression analysis was used to determine IC50 values which were converted to Ki values using the method of Cheng and Prusoff (Biochem. Pharmacol. 22: 3099, 1973); […].

For data set [1], the target named is T2, Human 5-HT1A Receptor (Homo sapiens, UniProt P08908).
T2 construct: expressed in transfected cells; host or cells: CHO cells
T2 sequence (P08908 1-422): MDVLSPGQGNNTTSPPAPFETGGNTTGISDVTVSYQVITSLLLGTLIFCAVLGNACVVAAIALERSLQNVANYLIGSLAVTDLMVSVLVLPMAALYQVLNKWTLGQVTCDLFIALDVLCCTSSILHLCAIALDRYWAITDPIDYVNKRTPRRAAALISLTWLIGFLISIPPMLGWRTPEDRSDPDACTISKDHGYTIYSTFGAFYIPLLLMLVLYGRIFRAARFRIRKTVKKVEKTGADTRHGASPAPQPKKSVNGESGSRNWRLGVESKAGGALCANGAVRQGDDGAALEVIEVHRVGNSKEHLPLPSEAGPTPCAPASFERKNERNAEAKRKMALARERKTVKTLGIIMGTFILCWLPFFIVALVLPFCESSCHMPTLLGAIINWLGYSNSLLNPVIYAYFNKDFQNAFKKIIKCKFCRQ
In words: 8-OH-DPAT binding, human 5-HT1A receptor cell line. The settings on record: stably transfected CHO cells, 8-OH-DPAT ligand 1.5 nM; read-out: h5-HT1A Affinity, Ki. How it is done:
Stably transfected CHO cells were grown in DMEM containing 10% heat inactivated FBS and non-essential amino acids. Cells were scraped off the plate, transferred to centrifuge tubes, and washed twice by centrifugation (2000 rpm for 10 min., 4° C.) in buffer (50 mM Tris, pH 7.5). The resulting pellets were aliquoted and placed at −80° C. On day of assay, the cells were thawed on ice, and resuspended in buffer. The binding assay was performed in a 96 well microtiter plate in a total volume of […]. Non-specific binding was determined in the presence of […] 5HT; final ligand concentration was 1.5 nM. Following a 30 min. incubation at room temperature, the reaction was terminated by the addition of ice cold buffer and rapid filtration through a GF/B filter presoaked for 30 min. in 0.5% PEI. Compounds were initially tested in a single point assay to determine percent inhibition at […]. Subsequently, Ki values were determined for compounds defined to be active. Percent inhibition Ki was determined by RFComp (Lundon Software), with Serotonin 8-OH-DPAT as the reference compounds.

Data set [2] has as its target T2, Human 5-HT1A Receptor. The experiment in a line: cAMP RIA in human 5-HT1A receptor cell line. In kind it is cell-based. The settings on record: superscript b; reversal of agonist activity, CHO cells; read-out: c-AMP, (IC50)^b. How it is done: Stably transfected CHO cells were grown in DMEM containing 10% heat inactivated FBS and non-essential amino acids. The cells were plated at a density of 10^6 cells per well in a 96 well plate and incubated for 2 days in a CO2 incubator. On the second day, the media was replaced with 0.1 ml Krebs and incubated 15 minutes at 37° C. The media was then replaced with Krebs buffer containing 500 uM IBMX and incubated 5 minutes at 37° C. Wells were treated with forskolin (1 uM final conc) followed immediately by test compound (0.1 and 1 uM for initial screen) and incubated for an additional 10 min at 37° C. Reaction was terminated by removal of the media and addition of 0.5 ml ice cold assay buffer (supplied in RIA kit). Plates are stored at −20° C. prior to assessment of cAMP formation by RIA. Compounds shown to have no agonist activities were further analyzed for ability to reverse agonist activity. In separate experiments, 6 concentrations of antagonist were preincubated for 20 min prior to the addition of agonist and forskolin. Cells were harvested as described. The cAMP kit is supplied by Amersham and the RIA is performed as per kit instructions. In the initial screen, percent inhibition of forskolin stimulated cAMP was measured. In the secondary screen, IC50 of reversal of agonist activity was measured. Calculations of IC50 were performed by GraphPad Prism. Serotonin, BMY 7378, Buspirone, and 8-OH-DPAT were used as reference compounds.

SMILES strings stand for the structures. Counter-ions that a name gives are not always drawn.

T1 sequence (P31652 whole entry): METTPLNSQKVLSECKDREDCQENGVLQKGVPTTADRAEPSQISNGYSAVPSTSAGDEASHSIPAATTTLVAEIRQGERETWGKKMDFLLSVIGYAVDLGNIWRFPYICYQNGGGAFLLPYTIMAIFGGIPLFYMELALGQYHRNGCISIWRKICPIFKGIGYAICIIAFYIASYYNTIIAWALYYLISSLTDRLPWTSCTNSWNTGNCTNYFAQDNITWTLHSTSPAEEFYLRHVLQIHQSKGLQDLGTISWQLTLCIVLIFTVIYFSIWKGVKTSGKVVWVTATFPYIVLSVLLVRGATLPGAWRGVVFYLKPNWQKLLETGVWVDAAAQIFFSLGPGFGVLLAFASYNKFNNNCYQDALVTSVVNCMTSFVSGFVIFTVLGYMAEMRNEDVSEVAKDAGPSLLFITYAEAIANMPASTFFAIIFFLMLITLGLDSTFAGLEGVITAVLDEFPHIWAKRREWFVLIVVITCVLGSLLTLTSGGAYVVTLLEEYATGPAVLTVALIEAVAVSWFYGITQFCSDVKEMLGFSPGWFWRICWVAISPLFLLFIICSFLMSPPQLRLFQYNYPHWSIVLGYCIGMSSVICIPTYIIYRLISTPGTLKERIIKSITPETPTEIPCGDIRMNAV

With `Cc1ccc2c3c(ccc2n1)OCC(CN(CC1CCc2c(c4cc(F)ccc4n2C)C1)C(C)C)O3` (as salt: hydrochloride) (hydrate or solvate) [Example 65, N-[(6-Fluoro-9-methyl-2,3,4,9-tetrahydro-1H-carbazol-3-yl)methyl]-N-([(2S)-8-methyl-2,3-dihydro[1,4]dioxino[2,3-f]quinolin-2-yl]methylpropan-2-aminemonohydrochloride monohydrate], the melting point is 201 to 222 °C.
For `Cc1ccc2c3c(ccc2n1)OC[C@H](CNC[C@@H]1CCc2[nH]c4ccc(F)cc4c2C1)O3` (as salt: hydrochloride) [Example 5, N-{[(3R)-6-fluoro-2,3,4,9-tetrahydro-1H-carbazol-3-yl]methyl}-N-{[(2S)-8-methyl-2,3-dihydro[1,4]dioxino[2,3-f]quinolin-2-yl]methyl}amine], the melting point lay within 229 to 236 °C.
The same measure, in the same setting: with `Cc1ccc2c3c(ccc2n1)OC[C@H](CNC[C@H]1CCc2c(c4cc(F)ccc4n2C)C1)O3` (as salt: hydrochloride) [Example 7] the figure was 220 to 226 °C.
The same measure, in the same setting: the value for `Cc1ccc2c3c(ccc2n1)OC[C@H](CNC[C@@H]1CCc2c(c4cc(F)ccc4n2C)C1)O3` (as salt: hydrochloride) [Example 8, N-{[(3R)-6-fluoro-9-methyl-2,3,4,9-tetrahydro-1H-carbazol-3-yl]methyl}-N-{[(2S)-8-methyl-2,3-dihydro[1,4]dioxino[2,3-f]quinolin-2-yl]methyl}amine] was 242 to 260 °C; that for `CCN(CC1CCc2[nH]c3ccc(F)cc3c2C1)C[C@H]1COc2ccc3nc(C)ccc3c2O1.Cl.Cl.O.O` (stereo partly drawn) (hydrate or solvate) [Example 50, N-[(6-Fluoro-2,3,4,9-tetrahydro-1H-carbazol-3-yl)methyl]-N-{[(2S)-8-methyl-2,3-dihydro[1,4]dioxino[2,3-f]quinolin-2-yl]methyl}ethanamine dihydrochloride dihydrate] was 234 to 249 °C; that for `CCCN(CC1CCc2[nH]c3ccc(F)cc3c2C1)C[C@H]1COc2ccc3nc(C)ccc3c2O1.Cl.Cl.O.O` (stereo partly drawn) (hydrate or solvate) [Example 51, N-[(6-Fluoro-2,3,4,9-tetrahydro-1H-carbazol-3-yl)methyl]-N-{[(2S)-8-methyl-2,3-dihydro[1,4]dioxino[2,3-f]quinolin-2-yl]methyl}propan-1-amine dihydrochloride dihydrate] was 187 to 201 °C.
On to `Cc1ccc2c3c(ccc2n1)OC[C@H](CN(CC1CC1)CC1CCc2[nH]c4ccc(F)cc4c2C1)O3.Cl.Cl.O.O` (stereo partly drawn) (hydrate or solvate) [Example 52, (Cyclopropylmethyl)[(6-fluoro-2,3,4,9-tetrahydro-1H-carbazol-3-yl)methyl]{[(2S)-8-methyl-2,3-dihydro[1,4]dioxino[2,3-f]quinolin-2-yl]methyl}amine dihydrochloride dihydrate], for which the melting point is 215 to 230 °C.
Consider `Cc1ccc2c3c(ccc2n1)OC[C@H](CN(CC1CCc2[nH]c4ccc(F)cc4c2C1)C1CCC1)O3.Cl.Cl.O.O` (stereo partly drawn) (hydrate or solvate) [Example 53, N-[(6-Fluoro-2,3,4,9-tetrahydro-1H-carbazol-3-yl)methyl]-N-{[(2S)-8-methyl-2,3-dihydro[1,4]dioxino[2,3-f]quinolin-2-yl]methyl}cyclobutanamine dihydrochloride dihydrate], for which the melting point fell in the range of 220 to 235 °C.
On the same count and under the same terms, with `CCCN(C[C@@H]1CCc2[nH]c3ccc(F)cc3c2C1)C[C@H]1COc2ccc3nc(C)ccc3c2O1.Cl.Cl.O.O` (hydrate or solvate) [Example 54, N-{[(3R)-6-Fluoro-2,3,4,9-tetrahydro-1H-carbazol-3-yl]methyl}-N-{[(2S)-8-methyl-2,3-dihydro[1,4]dioxino[2,3-f]quinolin-2-yl]methyl}propan-1-amine dihydrochloride dihydrate] the figure was 225 to 240 °C; with `Cc1ccc2c3c(ccc2n1)OC[C@H](CN(CC1CC1)C[C@@H]1CCc2[nH]c4ccc(F)cc4c2C1)O3.Cl.Cl.O.O` (hydrate or solvate) [Example 55, (Cyclopropylmethyl){[(3R)-6-fluoro-2,3,4,9-tetrahydro-1H-carbazol-3-yl]methyl}{[(2S)-8-methyl-2,3-dihydro[1,4]dioxino[2,3-f]quinolin-2-yl]methyl}amine dihydrochloride dihydrate], 210 to 225 °C.
The compound `Cc1ccc2c3c(ccc2n1)OC[C@H](CN(C[C@@H]1CCc2[nH]c4ccc(F)cc4c2C1)C1CCC1)O3.Cl.Cl.O.O` (hydrate or solvate) [Example 56, N-{[(3R)-6-Fluoro-2,3,4,9-tetrahydro-1H-carbazol-3-yl]methyl}-N-{[(2S)-8-methyl-2,3-dihydro[1,4]dioxino[2,3-f]quinolin-2-yl]methyl}cyclobutanamine dihydrochloride dihydrate] registered a melting point of 215 to 230 °C.
Compound `Cc1ccc2c3c(ccc2n1)OC[C@H](CN(C[C@@H]1CCc2[nH]c4ccc(F)cc4c2C1)C(C)C)O3.Cl.O` (hydrate or solvate) [Example 57, N-{[(3R)-6-Fluoro-2,3,4,9-tetrahydro-1H-carbazol-3-yl]methyl}-N-{[(2S)-8-methyl-2,3-dihydro[1,4]dioxino[2,3-f]quinolin-2-yl]methyl}propan-2-amine monohydrochloride monohydrate] registered a melting point of 230 to 243 °C.
As for `Cc1ccc2c3c(ccc2n1)OC[C@H](CNC[C@H]1CCc2[nH]c4ccc(F)cc4c2C1)O3` [Example 3, S,S-(6-Fluoro-2,3,4,9-tetrahydro-1H-carbazol-3-ylmethyl)-(8-methyl-2,3-dihydro-[1,4]dioxino[2,3-f]quinolin-2-ylmethyl)-amine], the IC50 worked out at 6.61 nM on serotonin transporter and 79 nM at Human 5-HT1A Receptor [2]. At Human 5-HT1A Receptor [1], the Ki was found to be 1.26 nM.
The corresponding values for `Cc1ccc2c3c(ccc2n1)OC[C@H](CNC[C@@H]1CCc2[nH]c4ccc(F)cc4c2C1)O3` [Example 5, N-{[(3R)-6-fluoro-2,3,4,9-tetrahydro-1H-carbazol-3-yl]methyl}-N-{[(2S)-8-methyl-2,3-dihydro[1,4]dioxino[2,3-f]quinolin-2-yl]methyl}amine] are 2.56 nM, 144 nM and 2.03 nM.
The corresponding values for `Cc1ccc2c3c(ccc2n1)OC[C@H](CNC[C@H]1CCc2c(c4cc(F)ccc4n2C)C1)O3` [Example 7] are 7.74 nM, 78.5 nM and 0.34 nM.
For `Cc1ccc2c3c(ccc2n1)OC[C@H](CNC[C@@H]1CCc2c(c4cc(F)ccc4n2C)C1)O3` [Example 8, N-{[(3R)-6-fluoro-9-methyl-2,3,4,9-tetrahydro-1H-carbazol-3-yl]methyl}-N-{[(2S)-8-methyl-2,3-dihydro[1,4]dioxino[2,3-f]quinolin-2-yl]methyl}amine] the same measures were 3.1 nM, 39.4 nM and 2.5 nM.

The melting point is the temperature of the solid-liquid transition. A word on the IC50: it is the concentration needed to halve the response being measured. One may read the Ki as the dissociation constant of the complex between target and ligand, obtained from inhibition or displacement.
